Where two headings read alike, the source gives them in different places.

We go through 1 compound from patent US11478466B2, “Small molecule promoting osteoblast differentiation” (Cornell University, priority 2019, dated 2022).

Assay [1] deals with alkaline phosphatase (ALP). Nature of the assay: cells. Particulars: Mus musculus; for activation at 10 µM: C2C12, 96 h.
A further assay deals with zebrafish larvae. Nature of the assay: Larval zebrafish notochord ossification model (alizarin red). It counts as in vivo, Danio rerio. The note with it: 15 μM, 24-h pulse 7-8 dpf, stained at 9 dpf, vs DMSO or inert analogs. The source says: DIPQUO Promotes and Accelerates Bone Mineralization In Vivo To address whether the observed effects of DIPQUO on osteoblast differentiation and maturation could extend to an in vivo bone model, we utilized the zebrafish, Danio rerio. First, zebrafish were used as a model system to examine developmental ossification via direct vertebral specification through conversion of the notochord sheath (Inohaya et al., 2007; Laue et al., 2008). During zebrafish larval stages, the extent and pattern of ossification observable at discrete developmental time points are susceptible to perturbation by cytokines or genetic modulation. The contribution of extrinsic factors to notochord ossification and patterning can be measured by alizarin red staining in a manner analogous to its application in gauging osteoblast maturation in cultured cells.
Animals studies were performed according to protocols approved by the WCMC IACUC. Wildtype (AB/TU hybrid) zebrafish were maintained at 28.5° C. Larval fish were treated from 7 dpf to 8 dpf in tank water with DMSO or with a 24-hour pulse of 15 μM DIPQUO or inert analog BT344 or BT345, and were fixed at 9 dpf in 4% paraformaldehyde overnight rocking at 4° C. Fixed larvae were washed in PBS-0.1% Tween-20 (PBST), followed by 50% ethanol/50% PBST. […] Images were acquired on a Zeiss LSM 800 confocal microscope and Sp7^+/col10a1^+ cells quantified using ImageJ.

The test system of assay [2] is RAW 264.7 murine macrophage cell line. The experiment in a line: Osteoclast differentiation (TRAP staining, qRT-PCR) in RAW 264.7 cells. It counts as cell-based, mouse. The procedure:
To address the specificity of DIPQUO for stimulating an osteogenic versus osteoclastic program, the RAW 264.7 murine macrophage cell line was assayed for osteoclast differentiation by staining for tartrate-resistant acid phosphatase (TRAP) to distinguish multinucleated osteoclasts from macrophages. […] Thus, DIPQUO appears to be primarily supportive of osteogenesis.
The RAW 264.7 macrophage cell line was purchased from ATCC and maintained in DMEM with 10% FBS. Cells were treated with 10 μM DIPQUO or 50 ng/ml RANKL (Sigma) for 4 days. Cells were fixed in 70% acetone/10% formaldehyde/20% citrate and TRAP staining was achieved using the Leukocyte Acid Phosphatase kit (Sigma 387A-1KT).
For quantitative RT-PCR analysis of gene expression in C2C12 cultures, cells were treated for 2 days with 10 μM DIPQUO and harvested into Trizol reagent (Invitrogen). One microgram of RNA was reverse transcribed using the VILO-RT kit (Invitrogen) to generate cDNA, which was diluted 1:25 in RNase-free H2O for qPCR with Sybr green using the Roche 480 II LightCycler and the 2^−ΔΔCT method (Livak and Schmittgen, 2001). For analysis of osteoclast gene expression, RAW 264.7 cells were treated with DMSO, 50 ng/ml RANKL, or 10 μM DIPQUO for 4 days, then harvested into Trizol reagent and processed as above. Mouse qPCR primers are as follows. Runx2: F([…]) (SEQ ID NO:1); R([…]) (SEQ ID NO:2); Dlx5: F([…]) (SEQ ID NO:3); R([…]) (SEQ ID NO:4); Osterix: F([…]) (SEQ ID NO:5); R([…]) (SEQ ID NO:6); ALP: F([…]) (SEQ ID NO:7); R([…]) (SEQ ID NO:8); Osteocalcin: F([…]) (SEQ ID NO:9); R([…]) (SEQ ID NO:10); Osteoactivin: F([…]) (SEQ ID NO:11); R([…]) (SEQ ID NO:12); CTSK: F([…]) (SEQ ID NO:13); R([…]) (SEQ ID NO:14); MMP9: F([…]) (SEQ ID NO:15); R([…]) (SEQ ID NO:16); Gapdh F([…]) (SEQ ID NO:17); R([…]) (SEQ ID NO:18). RNA-seq studies were carried out with the assistance of the Weill Cornell Genomics Core Facility, using the Illumina HiSeq4000 next-generation sequencer to generate reads from cDNA libraries generated from three biological replicates of day 2 DMSO- or DIPQUO-treated C2C12 cells. […]

Regarding `Cc1cc(C)c2[nH]c(=O)c(-c3[nH]cnc3-c3ccccc3)cc2c1` [RU-0226606, 6,8-dimethyl-3-(4-phenyl-1H-imidazol-5-yl)quinolin-2(1H)-one], the EC50 came to 9.3 µM in assay [1] (C2C12); 8.6 µM in assay [1] (C2C12, read-out: Measured EC50); 6.27 µM in assay [1] (C2C12, read-out: half maximal effective concentration in C2C12 cells). For the same compound, the activation at 10 µM in assay [1] came to 100%; in assay [1] (read-out: NPA Score Threshold ≥ 5.0 (normalized percent activation)) it was 8.78%. Also, in the assay with zebrafish larvae, the “mineralization of vertebral primordia (alizarin red)” value was “accelerate and accentuate mineralization of incipient vertebral primordia”. In addition, the “expression of CTSK and MMP9 (qRT-PCR)” value in assay [2] (RAW 264.7, 10 μM, 4 days) is given as “upregulated, albeit to a lower level compared with RANKL induction”. Besides, the “TRAP staining of multinucleated osteoclasts” value in assay [2] (RAW 264.7, 4 days, DIPQUO 10 μM, RANKL 50 ng/ml) is given as “comparatively few TRAP-positive cells”.
